# Measured values as given in ChEMBL document CHEMBL1201862, “PubChem BioAssay data set” (2004).
#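 48-hour exposure; five concentrations; linearly interpolated endpoints. At the GI50, growth is halved.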 Active and inactive are the calls of the source. Rule as the data show it: active = GI50 up to about 1.1 µM and inactive = higher.
# Tests used:
# Experiment in all cases: growth of human tumour cells (NCI), 48 h
# A498 = tested on: A498
# A549 = tested on: A549
# DU-145 = tested on: DU-145
# EKVX = tested on: EKVX
# HOP-62 = tested on: HOP-62
# HOP-92 = tested on: HOP-92
# Hs-578T = tested on: Hs-578T
# MDA-MB-231 = tested on: MDA-MB-231
# MOLT-4 = tested on: MOLT-4
# NCI-H522 = tested on: NCI-H522
# NCI/ADR-RES = tested on: NCI/ADR-RES
# PC-3 = tested on: PC-3
# RPMI-8226 = tested on: RPMI-8226
# SF-539 = tested on: SF-539
# SK-MEL-2 = tested on: SK-MEL-2
# SK-MEL-5 = tested on: SK-MEL-5
# SK-OV-3 = tested on: SK-OV-3
# SN12C = tested on: SN12C
# T47D = tested on: T47D
# UACC-62 = tested on: UACC-62
SMILES,GI50 (A498),GI50 (A549),GI50 (DU-145),GI50 (EKVX),GI50 (HOP-62),GI50 (HOP-92),GI50 (Hs-578T),GI50 (MDA-MB-231),GI50 (MOLT-4),GI50 (NCI-H522),GI50 (NCI/ADR-RES),GI50 (PC-3),GI50 (RPMI-8226),GI50 (SF-539),GI50 (SK-MEL-2),GI50 (SK-MEL-5),GI50 (SK-OV-3),GI50 (SN12C),GI50 (T47D),GI50 (UACC-62)
Cn1c2ccccc2c(=O)c2c(O)cc3c(c21)C=CC1(CCCCC1)O3,> 10 µM (inactive),> 10 µM (inactive),> 10 µM (inactive),8.41 µM (inactive),> 10 µM (inactive),> 10 µM (inactive),9.06 µM (inactive),> 10 µM (inactive),> 10 µM (inactive),> 10 µM (inactive),> 10 µM (inactive),> 10 µM (inactive),> 10 µM (inactive),> 10 µM (inactive),> 10 µM (inactive),> 10 µM (inactive),> 10 µM (inactive),> 10 µM (inactive),> 10 µM (inactive),> 10 µM (inactive)
CC(C)SC1SCC2C(=O)N(C)C3(CC3C)C(=O)OCC(NC(=O)c3nc4ccccc4cc3O)C(=O)NC(C)C(=O)N(C)C1C(=O)N(C)C1(CC1C)C(=O)OCC(NC(=O)c1nc3ccccc3cc1O)C(=O)NC(C)C(=O)N2C (stereo not given),< 0.0001 µM (active),< 0.0001 µM (active),< 0.0001 µM (active),0.00298 µM (active),< 0.0001 µM (active),< 0.0001 µM (active),< 0.0001 µM (active),< 0.0001 µM (active),< 0.0001 µM (active),< 0.0001 µM (active),0.00446 µM (active),< 0.0001 µM (active),< 0.0001 µM (active),< 0.0001 µM (active),< 0.0001 µM (active),< 0.0001 µM (active),< 0.0001 µM (active),< 0.0001 µM (active),< 0.0001 µM (active),< 0.0001 µM (active)
